Data taken from paper PMC8523698, “Preclinical characterization of an intravenous coronavirus 3CL protease inhibitor for the potential treatment of COVID19” (Nature Communications, 2021).
pIC50: −log10 of the molar value. “And” between values parts separate entries of the source, which are not always exact repeats. Equal values may be shown once.

What was measured:
[1] = Monkey pharmacokinetic study; conditions: for AUC(0-inf): AUCinf; for Vd: Vdss; for AUC(0-t): po, AUCt; for Total Concn in plasma: 1mg/kg IV PF-00835231 dosed (crossover), individual animals and mean
CYP2C8 = molecular target: T1, CYP2C8 (Homo sapiens, UniProt P10632); assay: Reversible CYP inhibition in human liver microsomes
T1 sequence (P10632 1-490): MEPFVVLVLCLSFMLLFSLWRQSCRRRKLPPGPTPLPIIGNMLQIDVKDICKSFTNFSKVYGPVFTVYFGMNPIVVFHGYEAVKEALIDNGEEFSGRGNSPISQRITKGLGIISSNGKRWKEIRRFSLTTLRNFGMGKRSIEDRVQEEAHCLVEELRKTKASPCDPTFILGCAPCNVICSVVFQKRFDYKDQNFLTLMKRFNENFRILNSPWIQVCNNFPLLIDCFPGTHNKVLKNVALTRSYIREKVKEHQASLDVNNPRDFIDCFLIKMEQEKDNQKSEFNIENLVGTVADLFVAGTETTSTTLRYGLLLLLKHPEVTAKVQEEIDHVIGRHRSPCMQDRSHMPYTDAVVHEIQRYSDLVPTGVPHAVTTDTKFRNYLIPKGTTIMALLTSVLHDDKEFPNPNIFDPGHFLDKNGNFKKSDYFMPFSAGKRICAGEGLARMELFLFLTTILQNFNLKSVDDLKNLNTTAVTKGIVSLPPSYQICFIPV

[2] = male, Cynomolgus, cynomolgus monkey, plasma, iv, 1 mg/kg, Mean, monkey, PF-00835231 active dosed 1mg/kg intravenous (crossover)
[3] = male, Cynomolgus, cynomolgus monkey, plasma, iv, 1 mg/kg, monkey, PF-00835231 active dosed 1mg/kg intravenous (crossover), individual monkeys
[4] = monkey, PF-00835231 active dosed 1mg/kg intravenous (crossover), individual monkeys, 1 mg/kg

For `COc1cccc2[nH]c(C(=O)N[C@@H](CC(C)C)C(=O)N[C@@H](C[C@@H]3CCNC3=O)C(=O)CO)cc12` [PF-00835231], the “Total Concn, Mean” value ([1]; Monkey, 1mg/kg intravenous, Time 0.083) was 1225 ng/mL, the “Total Concn” value ([1]; Monkey, 1mg/kg intravenous, Time 0.083, individual animals) was 1220 ng/mL and the “Total Concn” value ([1]; Monkey, 1mg/kg intravenous, Time 0.083, individual animals, 1 mg/kg) was 1230 ng/mL. The “Total Concn, Mean” value ([1]; Monkey, 1mg/kg intravenous, Time 0.25) was 365 ng/mL, the “Total Concn” value ([1]; Monkey, 1mg/kg intravenous, Time 0.25, individual animals) was 288 ng/mL and the “Total Concn” value ([1]; Monkey, 1mg/kg intravenous, Time 0.25, individual animals, 1 mg/kg) was 442 ng/mL. The “Total Concn, Mean” value ([1]; Monkey, 1mg/kg intravenous, Time 0.5) was 183 ng/mL, the “Total Concn” value ([1]; Monkey, 1mg/kg intravenous, Time 0.5, individual animals) was 154 ng/mL and the “Total Concn” value ([1]; Monkey, 1mg/kg intravenous, Time 0.5, individual animals, 1 mg/kg) was 212 ng/mL. For the same compound, the “Total Concn, Mean” value ([1]; Monkey, 1mg/kg intravenous, Time 1) was 107 ng/mL, the “Total Concn” value ([1]; Monkey, 1mg/kg intravenous, Time 1, individual animals, 1 mg/kg) was 89.9 ng/mL and 124 ng/mL and the “Total Concn, Mean” value ([1]; Monkey, 1mg/kg intravenous, Time 2) was 46 ng/mL. The “Total Concn” value ([1]; Monkey, 1mg/kg intravenous, Time 2, individual animals, 1 mg/kg) was 45.5 ng/mL and 47 ng/mL, the “Total Concn, Mean” value ([1]; Monkey, 1mg/kg intravenous, Time 4) was 13 ng/mL and the “Total Concn” value ([1]; Monkey, 1mg/kg intravenous, Time 4, individual animals, 1 mg/kg) was 12.2 ng/mL and 14 ng/mL. For the same compound, the “Total Concn, Mean” value ([1]; Monkey, 1mg/kg intravenous, Time 7) was 2.6 ng/mL, the “Total Concn” value ([1]; Monkey, 1mg/kg intravenous, Time 7, individual animals, 1 mg/kg) was 2.87 ng/mL and 2.25 ng/mL and the Vdss ([1]; Monkey, 1mg/kg intravenous, individual animals, 1 mg/kg) was 1.51 L/kg. It also gave an AUC(0-inf) [1, 2] of 0.583 µg·h/mL, an AUC(0-inf) [1, 3] of 0.614 µg·h/mL and a clearance ([1]; male, Cynomolgus, cynomolgus monkey, plasma, iv, 1 mg/kg, Clearance, Mean, monkey, PF-00835231 active dosed 1mg/kg intravenous (crossover)) of 1.72 L/h/kg. The clearance ([1]; male, Cynomolgus, cynomolgus monkey, plasma, iv, 1 mg/kg, Clearance, monkey, PF-00835231 active dosed 1mg/kg intravenous (crossover), individual monkeys) was 1.63 L/h/kg, the half-life ([1]; male, Cynomolgus, cynomolgus monkey, plasma, iv, 1 mg/kg, Half life, Mean, monkey, PF-00835231 active dosed 1mg/kg intravenous (crossover)) was 0.92 h and the half-life ([1]; male, Cynomolgus, cynomolgus monkey, plasma, iv, 1 mg/kg, Half life, monkey, PF-00835231 active dosed 1mg/kg intravenous (crossover), individual monkeys) was 1.14 h. It also gave a Vd [1, 2] of 1.43 L/kg, a Vd [1, 3] of 1.34 L/kg and a half-life ([1]; male, cynomolgus monkey, plasma, iv, 1 mg/kg, Terminal T1/2, monkey IV (n=2, range), PF-07304814 […], PF-00835231 1.0mg/kg) of less than 2 h. The Vd ([1]; male, cynomolgus monkey, plasma, iv, 1 mg/kg, Mean, Monkey, 1mg/kg intravenous) was 1.43 L/kg, the Vd ([1]; male, cynomolgus monkey, plasma, iv, 1 mg/kg, Monkey, 1mg/kg intravenous, individual animals) was 1.34 L/kg and the Vd ([1]; male, cynomolgus monkey, plasma, iv, 1 mg/kg, Monkey, Vdss input) was 1.4 L/kg. The Vd ([1]; male, cynomolgus monkey, plasma, iv, 1 mg/kg, monkey IV (n=2, range), PF-07304814 […], PF-00835231 1.0mg/kg) was less than 1.5 L/kg, the clearance ([1]; male, cynomolgus monkey, plasma, iv, Cl, monkey IV (n=2, range), PF-07304814 […], PF-00835231 1.0mg/kg) was 1.72 L/h/kg and the half-life ([1]; male, cynomolgus monkey, plasma, iv, Terminal T1/2, monkey IV (n=2, range), PF-07304814 […], PF-00835231 1.0mg/kg) was 1.2 h. It also gave a Vd ([1]; male, cynomolgus monkey, plasma, iv, monkey IV (n=2, range), PF-07304814 […], PF-00835231 1.0mg/kg) of 1.4 L/kg, an AUC(0-t) ([1]; male, cynomolgus monkey, plasma, 5 mg/kg, Mean, monkey, PF-00835231 5mg/kg PO dose) of 0.000466 µg·h/mL and an AUC(0-t) ([1]; male, cynomolgus monkey, plasma, 5 mg/kg, monkey, PF-00835231 5mg/kg PO dose, individual monkeys) of 0.000328 µg·h/mL. For the same compound, the “Total Concn” value ([1]; monkey plasma, PF-00835231 active dosed 1mg/kg intravenous (crossover), time 0.5 h, individual monkeys, 1 mg/kg) was 212 ng/mL, the “Total Concn” value ([1]; monkey plasma, PF-00835231 active dosed 1mg/kg intravenous (crossover), time 1 h, individual monkeys, 1 mg/kg) was 124 ng/mL and the “Total Concn” value ([1]; monkey plasma, PF-00835231 active dosed 1mg/kg intravenous (crossover), time 2 h, individual monkeys, 1 mg/kg) was 47 ng/mL. For the same compound, the “Total Concn” value ([1]; monkey plasma, PF-00835231 active dosed 1mg/kg intravenous (crossover), time 4 h, individual monkeys, 1 mg/kg) was 14 ng/mL, the “Total Concn” value ([1]; monkey plasma, PF-00835231 active dosed 1mg/kg intravenous (crossover), time 7 h, individual monkeys, 1 mg/kg) was 2.25 ng/mL and the “Urine Concn” value ([1]; monkey urine 0-7h, PF-00835231 active dosed 1mg/kg intravenous (crossover), individual monkeys, 1 mg/kg) was 260 ng/mL and 304 ng/mL. For the same compound, the “Urine Concn” value ([1]; monkey urine 7-24h, PF-00835231 active dosed 1mg/kg intravenous (crossover), individual monkeys, 1 mg/kg) was 6.76 ng/mL and 33.1 ng/mL, the “Total Concn in plasma” value ([1]; monkey, Time 0.083, 1 mg/kg) was 1220 ng/mL and 1225 ng/mL and the “Total Concn in plasma” value ([1]; monkey, Time 0.25, 1 mg/kg) was 442 ng/mL and 365 ng/mL. The “Total Concn in plasma” value ([1]; monkey, Time 0.5, 1 mg/kg) was 212 ng/mL and 183 ng/mL, the “Total Concn in plasma” value ([1]; monkey, Time 1, 1 mg/kg) was 124 ng/mL and 107 ng/mL and the “Total Concn in plasma” value ([1]; monkey, Time 2, 1 mg/kg) was 47 ng/mL and 46 ng/mL. The “Total Concn in plasma” value ([1]; monkey, Time 4, 1 mg/kg) was 14 ng/mL and 13 ng/mL, the “Total Concn in plasma” value ([1]; monkey, Time 7, 1 mg/kg) was 2.87 ng/mL and 2.25 ng/mL and 2.6 ng/mL and the AUCt ([1]; monkey, PF-00835231 5mg/kg PO dose, individual monkeys, 5 mg/kg) was 0.000603 µg·h/mL. The AUCinf [1, 4] was 0.552 µg·h/mL, the Half life [1, 4] was 1.27 h and the Vdss [1, 4] was 1.51 L/kg. The clearance [1, 4] was 1.81 L/h/kg, the “Oral F%” value ([1]; monkey, 5mg/kg PO vs 1.0mg/kg IV) was < 0.1% and < 2% and the “Percent of Control Activity” value (CYP2C8; CYP 2C8, 0.1 µM, 30-Minute Preincubation, 0.1 µM) was 98.0% and 103.9%. The “Percent of Control Activity” value (CYP2C8; CYP 2C8, 0.1 µM, Zero-Minute Preincubation, 0.1 µM) was 104.8% and 112.8%, the “Percent of Control Activity” value (CYP2C8; CYP 2C8, 0.214 µM, 30-Minute Preincubation, 0.214 µM) was 93.1% and 90.6% and the “Percent of Control Activity” value (CYP2C8; CYP 2C8, 0.214 µM, Zero-Minute Preincubation, 0.214 µM) was 107.5% and 109.2%. The “Percent of Control Activity” value (CYP2C8; CYP 2C8, 0.979 µM, 30-Minute Preincubation, 0.979 µM) was 105.7% and 92.9%, the “Percent of Control Activity” value (CYP2C8; CYP 2C8, 2.09 µM, 30-Minute Preincubation, 2.09 µM) was 93.9% and 94.5% and the “Percent of Control Activity” value (CYP2C8; CYP 2C8, 2.09 µM, Zero-Minute Preincubation, 2.09 µM) was 100.1% and 105.9%. For the same compound, the “Percent of Control Activity” value (CYP2C8; CYP 2C8, 4.48 µM, 30-Minute Preincubation, 4.48 µM) was 91.6% and 90.7%, the “Percent of Control Activity” value (CYP2C8; CYP 2C8, 4.48 µM, Zero-Minute Preincubation, 4.48 µM) was 107.2% and 107.1% and the “Percent of Control Activity” value (CYP2C8; CYP 2C8, 20.5 µM, 30-Minute Preincubation, 20.5 µM) was 94.2% and 94.7%. For the same compound, the “Percent of Control Activity” value (CYP2C8; CYP 2C8, 20.5 µM, Zero-Minute Preincubation, 20.5 µM) was 95.8% and 108.3%, the “Percent of Control Activity” value (CYP2C8; CYP 2C8, 43.8 µM, 30-Minute Preincubation, 43.8 µM) was 90.3% and the “Percent of Control Activity” value (CYP2C8; CYP 2C8, 43.8 µM, Zero-Minute Preincubation, 43.8 µM) was 96.9% and 95.4%. The “Percent of Control Activity” value (CYP2C8; CYP 2C8, 93.5 µM, 30-Minute Preincubation, 93.5 µM) was 68.7% and 77.7%, the “Percent of Control Activity” value (CYP2C8; CYP 2C8, 93.5 µM, Zero-Minute Preincubation, 93.5 µM) was 87.1% and 95.1% and the “Percent of Control Activity” value (CYP2C8; CYP 2C8, 200 µM, 30-Minute Preincubation, 200 µM) was 65.4% and 64.5%. For the same compound, the “Percent of Control Activity” value (CYP2C8; CYP 2C8, 200 µM, Zero-Minute Preincubation, 200 µM) was 78.5% and 82.2%, the pIC50 (CYP2C8; human, microsomes, pH 7.4) was less than 3.70 and the activity at 0.1 µM (CYP2C8; human, microsomes, pH 7.4, Percent of Control Activity, CYP 2C8, 0.1 µM, 30-Minute Preincubation) was 97.4%. It also gave an activity at 0.1 µM (CYP2C8; human, microsomes, pH 7.4, Percent of Control Activity, CYP 2C8, 0.1 µM, Zero-Minute Preincubation) of 99.7%, an activity at 0.214 µM (CYP2C8; human, microsomes, pH 7.4, Percent of Control Activity, CYP 2C8, 0.214 µM, 30-Minute Preincubation) of 91% and an activity at 0.214 µM (CYP2C8; human, microsomes, pH 7.4, Percent of Control Activity, CYP 2C8, 0.214 µM, Zero-Minute Preincubation) of 103%. For the same compound, the activity at 0.979 µM (CYP2C8; human, microsomes, pH 7.4, Percent of Control Activity, CYP 2C8, 0.979 µM, 30-Minute Preincubation) was 98.3%.
